Measured values reported in US10806785B2, “Immunomodulator compounds and methods of use” (Incyte Corporation, priority 2016, dated 2020).

Molecular target: PD-1/PD-L1 (Homo sapiens (Human), UniProt Q9NZQ7)
Assay: PD-1/PD-L1 binding assay (HTRF)
Method in brief: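 Fc-tagged human PD-1 (25-167) and His-tagged PD-L1 (19-238), listed as […] and 10 nM final, preincubated 40 min with inhibitors in PBS pH 7.4, 0.05% Tween-20, 0.1% BSA, 1% DMSO, 25 °C. Eu anti-IgG/APC anti-His added, 60 min, 665/620 nm HTRF ratio; IC50 fitted from percent control activity.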

PD-1/PD-L1, sequence (Q9NZQ7 19-238): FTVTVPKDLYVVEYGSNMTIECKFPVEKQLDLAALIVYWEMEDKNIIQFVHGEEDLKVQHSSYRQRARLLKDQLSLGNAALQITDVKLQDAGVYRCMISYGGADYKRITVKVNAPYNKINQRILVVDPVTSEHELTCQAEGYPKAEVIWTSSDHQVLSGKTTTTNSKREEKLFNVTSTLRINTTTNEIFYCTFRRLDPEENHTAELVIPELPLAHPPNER

Row | IC50 | Compound
1 | ≤ 10 nM | Cc1c(-c2nc3c(o2)CN(C(=O)CN[C@@H](C)CO)C3)cccc1-c1cccc(NC(=O)c2nc3c(n2C)CCN(C)C3)c1Cl [Compound 164, (S)—N-(2-chloro-3′-(5-((S)-(1-hydroxypropan-2-yl)glycyl)-5,6-dihydro-4H-pyrrolo[3,4-d]oxazol-2-yl)-2′-methyl-[1,1′-biphenyl]-3-yl)-1,5-dimethyl-4,5,6,7-tetrahydro-1H-imidazo[4,5-c]pyridine-2-carboxamide]
2 | ≤ 10 nM | CN1CCc2c(nc(C(=O)Nc3cccc(-c4cccc(NC(=O)c5nc6c(n5C)CCN(CC5CCC(C)(C(=O)O)CC5)C6)c4Cl)c3Cl)n2C)C1 (single isomer, unassigned) [Compound 82-1, 4-((2-((2,2′-dichloro-3′-(1,5-dimethyl-4,5,6,7-tetrahydro-1H-imidazo[4,5-c]pyridine-2-carboxamido)-[1,1′-biphenyl]-3-yl)carbamoyl)-1-methyl-1,4,6,7-tetrahydro-5H-imidazo[4,5-c]pyridin-5-yl)methyl)-1-methylcyclohexane-1-carboxylic acid]
3 | ≤ 10 nM | CN1CCc2c(nc(C(=O)Nc3cccc(-c4cccc(NC(=O)c5nc6c(n5C)CCN(C5CCC(C(=O)O)CC5)C6)c4Cl)c3Cl)n2C)C1 (stereo not drawn) [Example 79, 4-(2-((2,2′-dichloro-3′-(1,5-dimethyl-4,5,6,7-tetrahydro-1H-imidazo[4,5-c]pyridine-2-carboxamido)-[1,1′-biphenyl]-3-yl)carbamoyl)-1-methyl-1,4,6,7-tetrahydro-5H-imidazo[4,5-c]pyridin-5-yl)cyclohexane-1-carboxylic acid]
4 | ≤ 10 nM | Cc1c(NC(=O)c2cc(CN3CC[C@@H](O)C3)cn(C)c2=O)cccc1-c1cccc(NC(=O)c2nc3c(n2C)CCN(C[C@H](C)O)C3)c1Cl [Example 51, N-(2-chloro-3′-(5-(((R)-3-hydroxypyrrolidin-1-yl)methyl)-1-methyl-2-oxo-1,2-dihydropyridine-3-carboxamido)-2′-methylbiphenyl-3-yl)-5-((S)-2-hydroxypropyl)-1-methyl-4,5,6,7-tetrahydro-1H-imidazo[4,5-c]pyridine-2-carboxamide]
5 | ≤ 10 nM | Cc1c(NC(=O)c2nc3c(n2C)CCN(C2CCCCC2)C3)cccc1-c1cccc(NC(=O)c2nc3c(n2C)CCN(CC[C@H]2CC[C@H](C(=O)O)CC2)C3)c1Cl [Example 131, trans-4-(2-(2-((2-chloro-3′-(5-cyclohexyl-1-methyl-4,5,6,7-tetrahydro-1H-imidazo[4,5-c]pyridine-2-carboxamido)-2′-methyl-[1,1′-biphenyl]-3-yl)carbamoyl)-1-methyl-1,4,6,7-tetrahydro-5H-imidazo[4,5-c]pyridin-5-yl)ethyl)cyclohexane-1-carboxylic acid]
6 | ≤ 10 nM | CCN(C)CC(=O)N1Cc2nc(-c3cccc(-c4cccc(NC(=O)c5nc6c(n5C)CCN(CCC5CCC(C(=O)O)CC5)C6)c4Cl)c3Cl)oc2C1 (stereo not drawn) [Compound 169, 4-(2-(2-((2,2′-dichloro-3′-(5-(N-ethyl-N-methylglycyl)-5,6-dihydro-4H-pyrrolo[3,4-d]oxazol-2-yl)-[1,1′-biphenyl]-3-yl)carbamoyl)-1-methyl-1,4,6,7-tetrahydro-5H-imidazo[4,5-c]pyridin-5-yl)ethyl)cyclohexane-1-carboxylic acid]
7 | ≤ 10 nM | Cc1c(NC(=O)c2nc3c(n2C)CCN(CCCNS(C)(=O)=O)C3)cccc1-c1cccc(NC(=O)c2nc3c(n2C)CCN(C)C3)c1Cl [Example 36, N-(2-chloro-2′-methyl-3′-(1-methyl-5-(3-(methylsulfonamido)propyl)-4,5,6,7-tetrahydro-1H-imidazo[4,5-c]pyridine-2-carboxamido)biphenyl-3-yl)-1,5-dimethyl-4,5,6,7-tetrahydro-1H-imidazo[4,5-c]pyridine-2-carboxamide]
8 | ≤ 10 nM | Cn1c(C(=O)Nc2cccc(-c3cccc(NC(=O)c4nc5c(n4C)CCN(C4CCC(O)CC4)C5)c3Cl)c2Cl)nc2c1CCN(C[C@H]1CC[C@@H](C(=O)O)CC1)C2 (stereo partly drawn) [145 (compound 145-1), cis-4-((2-((2,2′-dichloro-3′-(5-(4-hydroxycyclohexyl)-1-methyl-4,5,6,7-tetrahydro-1H-imidazo[4,5-c]pyridine-2-carboxamido)-[1,1′-biphenyl]-3-yl)carbamoyl)-1-methyl-1,4,6,7-tetrahydro-5H-imidazo[4,5-c]pyridin-5-yl)methyl)cyclohexane-1-carboxylic acid]
9 | ≤ 10 nM | Cc1c(NC(=O)c2nc3c(n2C)CCN(C)C3)cccc1-c1cccc(NC(=O)c2nc3c(n2C)CCN(CC24CCC(C(=O)O)(CC2)C4)C3)c1Cl [Example 119, 4-((2-((2-chloro-3′-(1,5-dimethyl-4,5,6,7-tetrahydro-1H-imidazo[4,5-c]pyridine-2-carboxamido)-2′-methyl-[1,1′-biphenyl]-3-yl)carbamoyl)-1-methyl-1,4,6,7-tetrahydro-5H-imidazo[4,5-c]pyridin-5-yl)methyl)bicyclo[2.2.1]heptane-1-carboxylic acid]
10 | ≤ 10 nM | Cc1c(NC(=O)c2nc3c(n2C)CCN(C2CCOCC2)C3)cccc1-c1cccc(NC(=O)c2nc3c(n2C)CCN(C2CCC(C(=O)O)CC2)C3)c1Cl (stereo not drawn) [Example 125, 4-(2-((2-chloro-2′-methyl-3′-(1-methyl-5-(tetrahydro-2H-pyran-4-yl)-4,5,6,7-tetrahydro-1H-imidazo[4,5-c]pyridine-2-carboxamido)-[1,1′-biphenyl]-3-yl)carbamoyl)-1-methyl-1,4,6,7-tetrahydro-5H-imidazo[4,5-c]pyridin-5-yl)cyclohexane-1-carboxylic acid]
11 | ≤ 10 nM | Cc1c(NC(=O)c2cc(CN3CCCC3)cn(C)c2=O)cccc1-c1cccc(NC(=O)c2nc3c(n2C)CCN(C)C3)c1Cl [Example 50, N-(2-chloro-2′-methyl-3′-(1-methyl-2-oxo-5-(pyrrolidin-1-ylmethyl)-1,2-dihydropyridine-3-carboxamido)biphenyl-3-yl)-1,5-dimethyl-4,5,6,7-tetrahydro-1H-imidazo[4,5-c]pyridine-2-carboxamide]
12 | ≤ 10 nM | CC(C)N1CCc2c(nc(C(=O)Nc3cccc(-c4cccc(NC(=O)c5nc6c(n5C)CCN(CC[C@H]5CC[C@H](C(=O)O)CC5)C6)c4Cl)c3C#N)n2C)C1 [Compound 152, trans-4-(2-(2-((2-chloro-2′-cyano-3′-(5-isopropyl-1-methyl-4,5,6,7-tetrahydro-1H-imidazo[4,5-c]pyridine-2-carboxamido)-[1,1′-biphenyl]-3-yl)carbamoyl)-1-methyl-1,4,6,7-tetrahydro-5H-imidazo[4,5-c]pyridin-5-yl)ethyl)cyclohexane-1-carboxylic acid]
13 | ≤ 10 nM | CC(C)N1CCc2c(nc(C(=O)Nc3cccc(-c4cccc(NC(=O)c5nc6c(n5C)CCN(CC57CCC(C(=O)O)(CC5)C7)C6)c4Cl)c3Cl)n2C)C1 [Compound 177, 4-((2-(2,2′-dichloro-3′-(5-isopropyl-1-methyl-4,5,6,7-tetrahydro-1H-imidazo[4,5-c]pyridine-2-carboxamido)biphenyl-3-ylcarbamoyl)-1-methyl-6,7-dihydro-1H-imidazo[4,5-c]pyridin-5(4H)-yl)methyl)bicyclo[2.2.1]heptane-1-carboxylic acid]
14 | ≤ 10 nM | Cn1c(C(=O)Nc2cccc(-c3cccc(NC(=O)c4nc5c(n4C)CCN(C4CCC4)C5)c3Cl)c2Cl)nc2c1CCN(CC13CCC(C(=O)O)(CC1)C3)C2 [Compound 178, 4-((2-(2,2′-dichloro-3′-(5-cyclobutyl-1-methyl-4,5,6,7-tetrahydro-1H-imidazo[4,5-c]pyridine-2-carboxamido)biphenyl-3-ylcarbamoyl)-1-methyl-6,7-dihydro-1H-imidazo[4,5-c]pyridin-5(4H)-yl)methyl)bicyclo[2.2.1]heptane-1-carboxylic acid]
15 | ≤ 10 nM | Cc1c(NC(=O)c2nc3c(n2C)CCN(C2CCC(C)(C(=O)O)CC2)C3)cccc1-c1cccc(NC(=O)c2nc3c(n2C)CCN(C(C)C)C3)c1Cl (stereo not drawn) [Example 106, 4-(2-((2′-chloro-3′-(5-isopropyl-1-methyl-4,5,6,7-tetrahydro-1H-imidazo[4,5-c]pyridine-2-carboxamido)-2-methyl-[1,1′-biphenyl]-3-yl)carbamoyl)-1-methyl-1,4,6,7-tetrahydro-5H-imidazo[4,5-c]pyridin-5-yl)-1-methylcyclohexane-1-carboxylic acid]
16 | ≤ 10 nM | C[C@H](O)CN1CCc2c(nc(C(=O)Nc3cccc(-c4cccc(NC(=O)c5nc6c(n5C)CCN(C)C6)c4C#N)c3Cl)n2C)C1 [Example 39, (S)—N-(2-chloro-2′-cyano-3′-(1,5-dimethyl-4,5,6,7-tetrahydro-1H-imidazo[4,5-c]pyridine-2-carboxamido)biphenyl-3-yl)-5-(2-hydroxypropyl)-1-methyl-4,5,6,7-tetrahydro-1H-imidazo[4,5-c]pyridine-2-carboxamide]
17 | ≤ 10 nM | Cc1c(NC(=O)c2nc3c(n2C)CCN(CCO)C3)cccc1-c1cccc(NC(=O)c2nc3c(n2C)CCN(CC[C@H]2CC[C@H](C(=O)O)CC2)C3)c1Cl [Example 132, trans-4-(2-(2-((2-chloro-3′-(5-(2-hydroxyethyl)-1-methyl-4,5,6,7-tetrahydro-1H-imidazo[4,5-c]pyridine-2-carboxamido)-2′-methyl-[1,1′-biphenyl]-3-yl)carbamoyl)-1-methyl-1,4,6,7-tetrahydro-5H-imidazo[4,5-c]pyridin-5-yl)ethyl)cyclohexane-1-carboxylic acid]
18 | ≤ 10 nM | Cc1c(NC(=O)c2nc3c(n2C)CCN(C2CCOCC2)C3)cccc1-c1cccc(NC(=O)c2nc3c(n2C)CCN(C[C@H]2CC[C@H](C(=O)O)CC2)C3)c1Cl [Example 123, trans-4-((2-((2-chloro-2′-methyl-3′-(1-methyl-5-(tetrahydro-2H-pyran-4-yl)-4,5,6,7-tetrahydro-1H-imidazo[4,5-c]pyridine-2-carboxamido)-[1,1′-biphenyl]-3-yl)carbamoyl)-1-methyl-1,4,6,7-tetrahydro-5H-imidazo[4,5-c]pyridin-5-yl)methyl)cyclohexane-1-carboxylic acid]
